Results published in ChEMBL document CHEMBL3259635, “Recent developments of metal N-heterocyclic carbenes as anticancer agents” (Eur J Med Chem, 2014).
pEC50, pIC50: −log10 of the molar value.

Assays:
Format in all cases: functional, cell-based
[1] = Cytotoxicity against CCO cells; conditions: Ictalurus punctatus
[2] = Cytotoxicity against rat PC12 cells; conditions: PC-12
[3] = Cytotoxicity against gastric cancer cells (unknown origin); conditions: Cancer cell lines, Stomach
[4] = Cytotoxicity against breast cancer cells (unknown origin); conditions: Cancer cell lines
[5] = Cytotoxicity against epithelial cancer cells (unknown origin); conditions: Cancer cell lines
[6] = Cytotoxicity against rat PC12 cells after 24 hrs; conditions: PC-12, 24 h

SMILES: CCCn1cc[n+](C)c1
- pEC50 [1]: < 5.00

SMILES: CCCCCCCCn1cc[n+](C)c1.O=S(=O)([N-]S(=O)(=O)C(F)(F)F)C(F)(F)F
- pEC50 [1]: > 7.00

SMILES: CCCCn1cc[n+](C)c1
- pEC50 [2]: < 2.04

SMILES: CC(=O)Oc1ccc(Cn2cc[n+](-c3c(C)cc(C)cc3C)c2)cc1
- pIC50 [3]: 5.00
- pIC50 [4]: 4.70

SMILES: CCCCCCCCCCCCn1cc[n+](C)c1
- pEC50 [2]: 4.62

SMILES: c1c[n+](C23CC4CC(CC(C4)C2)C3)cn1C12CC3CC(CC(C3)C1)C2
- pIC50 [5]: 6.00

SMILES: c1ccc(Cc2cn(Cc3ccccc3)c[n+]2Cc2ccccc2)cc1
- pIC50 [5]: 4.70

SMILES: CC(=O)Oc1ccc(Cn2cc[n+](Cc3ccccc3)c2C)cc1
- pIC50 [5]: 4.55

SMILES: Cc1ccc(C[n+]2ccn(Cc3ccccc3)c2)cc1
- pIC50 [5]: 4.52

SMILES: Cc1n(Cc2ccccc2)cc[n+]1Cc1ccccc1C(F)(F)F
- pIC50 [5]: 4.46

SMILES: c1ccc(CCn2cc[n+](CCc3ccccc3)c2)cc1
- pIC50 [5]: 4.70

SMILES: Cc1n(Cc2ccccc2)cc[n+]1Cc1ccccc1
- pIC50 [3]: 4.46
- pIC50 [4]: 4.46

SMILES: CCCCCCCn1cc[n+](C)c1.O=S(=O)([N-]S(=O)(=O)C(F)(F)F)C(F)(F)F
- pEC50 [1]: > 7.00

SMILES: CCCCCCCC[n+]1ccn(C)c1
- pEC50 [6]: 3.25
